Reference: patent US4529589A, “Pharmaceutical composition for the treatment of diabetes mellitus” (priority 1981, dated 1985)

Columns and labels:
[1] = test system: volunteer suffering from diabetes; assay: sugar curve after dietic breakfast in volunteer with diabetes in a light form; assay type: in vivo, human
Experimental: Volunteer (body weight 89 kg) suffered from diabetes in a light form for 10 years. The blood sugar level in the morning on empty stomach was varied from 125 to 190 mg%. On recommendation of the endocrinologist, they were treated with maninyl in a dose of from 0.00125 to 0.0025 g (1/4-1/2 of a tablet) a day. 6 tests were performed including 1 control sugar curve at the background of administration of a dietic breakfast, the 2-nd test--the same curve but with administration, during breakfast, of 0.00125 g of maninyl and 4 tests with the preparation according to the present invention. The doses of insulin in the plates of the preparation of this invention were […]. The duration of resorption of the plates was 9 to 36 minutes. The breakfast was 9-37 minutes thereafter.
The sugar curve obtained after the control test against the background of having a dietic breakfast without hypoglycemic remedies had the following character: the starting blood sugar level was 125 mg%; after 30 minutes since the breakfast--153 mg%; 60 minutes thereafter--155 mg%, 2 hours thereafter--135 mg%, i.e., after 30 and 60 minutes, the blood sugar level was increased by 22 and 24% respectively relative to the initial value.
In a week, the test was repeated; however, during the dietic breakfast, the volunteer was administered 0.00125 g of maninyl (1/4 of a tablet). […] The absolute level of blood sugar was as high as 200 mg%. After 120 minutes, a high blood sugar level was retained--170 mg% which was by 10% higher than the initial value on the same day of investigation.
One week afterwards, the experiment was repeated. The initial level of blood sugar was equal to 190 mg%. The volunteer was administered a plate of the preparation of this invention containing 16 units of insulin (test dose) sublingually; 30 minutes thereafter, the volunteer had breakfast (dietic one). 30 minutes after the breakfast, the blood sugar level was increased up to 200 mg% (by 5% altogether) which was by 17% below the raise in the control test; after 60 minutes--by 26% (240 mg%) which substantially corresponded to the level raise in the control investigation (+2%) and after 120 minutes--reduced by 8% of the initial value (175 mg%) which was by 16% below the level in the control test.

[2] = test system: patients; conditions: subcutaneous (sometimes intramuscular) injection, majority of patients; cited from earlier work
[3] = test system: volunteer patients-physicians; assay: sugar curve after glucose load per os (0.7 g/kg) in volunteers; assay type: in vivo, human; conditions: for decrease in the blood sugar level as compared to the control sugar curve: subcutaneous 16 units (after volunteer I.)
Experimental: The pharmaceutical preparation for the treatment of diabetes mellitus has been studied on volunteer patients-physicians. The experiments have been performed on 8 volunteers. 58 tests were carried out including 9 control tests without administration of insulin, 6 control tests with subcutaneous administration of insulin and 43 experimental tests with the administration of plates of the preparation according to the present invention. The control investigation--a sugar curve--has been taken for every volunteer. This involved determination of the blood sugar level in an empty stomach, whereafter the patient was administered glucose per os at the rate of 0.7 g/kg of the body weight diluted with 200 ml of warm water and then the blood sugar level was determined after 30, 60 and 120 minutes. Therefore, in this manner, the blood sugar level variations were determined under the effect of administration of gluclose including the determination of the maximum increase as a percentage of the starting sugar level in blood in the empty-stomach state. After 1-2 weeks, the investigation with a similar sugar load was repeated simultaneously with subcutaneous administration of crystalline insulin at the rate of 0.1-0.2 unit/kg of the body weight right after the administration of the same dose of glucose. After an additional 1-2 weeks, the investigation with the preparation according to the present invention has been carried out. The preparation according to the present invention in the form of plates of a polymer was placed under the tongue by application of the plates to the lower lingual surface at its root or at any other suitable place of the mucous membrane of the mouth cavity. The content of insulin in the plates was varied from 8 to 150 units. After a complete resorption of the plate, maximum within 60 minutes, the volunteer was given a standard dose of glucose per os. The blood examination for sugar has been performed on an empty stomach after 30, 60 and 120 minutes since the glucose administration. The hypoglycemic effect of the test preparations was evaluated by the difference in sugar levels in blood (%) as compared to the control test (without insulin).

COc1ccc(Cl)cc1C(=O)NCCc1ccc(S(=O)(=O)NC(=O)NC2CCCCC2)cc1 [maninyl]
raise of the sugar curve, % of the initial value ([1]; 0.00125 g during dietic breakfast, after 30 and 60 minutes, starting level 155 mg%): +29% | blood sugar level higher than the initial value ([1]; 0.00125 g during dietic breakfast, after 120 minutes): 10% | absolute level of blood sugar (as high as) ([1]; 0.00125 g during dietic breakfast, starting level 155 mg%): 200 mg% | hypoglycemic effect (in words) ([1]; dose prescribed by the endocrinologist): no hypoglycemic effect at all

crystalline insulin: crystalline insulin administered subcutaneously as comparison
time to maximum effect [2]: 2 to 5 h | sugar level higher than the control value ([3]; subcutaneous 8 units (volunteer D.), after 30 minutes): 6% | sugar level below the control level ([3]; subcutaneous 8 units (volunteer D.), after 60 minutes): 60% | sugar level above the control level ([3]; subcutaneous 8 units (volunteer D.), after 120 minutes): 20% | blood sugar level exceeded the control value ([3]; subcutaneous 8 units (volunteer P.), after 30 minutes): 16% | blood sugar level below the control value ([3]; subcutaneous 8 units (volunteer P.), after 60 minutes): 43% | blood sugar level below the control ([3]; subcutaneous 8 units (volunteer P.), after 120 minutes): 12% | blood sugar level increased as compared to the initial value ([3]; subcutaneous 8 units with 56 g glucose (volunteer D.), after 30 minutes): 86% | blood sugar level increased as compared to the initial value ([3]; subcutaneous 8 units with 56 g glucose (volunteer D.), after 60 minutes): 40% | blood sugar level increased as compared to the initial value ([3]; subcutaneous 8 units with 56 g glucose (volunteer D.), after 120 minutes): 33% | blood sugar level increased as compared to the initial value ([3]; subcutaneous 8 units with 56 g glucose (volunteer P.), after 30 minutes): 87% | blood sugar level lowered ([3]; subcutaneous 8 units with 56 g glucose (volunteer P.), after 60 minutes): 53% | blood sugar level relative to the initial level (in words) ([3]; subcutaneous 8 units with 56 g glucose (volunteer P.), after 120 minutes): returned to the initial level | decrease in the blood sugar level as compared to the control sugar curve ([3]; after 30 minutes): 55% | decrease in the blood sugar level as compared to the control sugar curve ([3]; after 60 minutes): 18% | decrease in the blood sugar level as compared to the control sugar curve ([3]; after 120 minutes): 34% | sugar level in blood increased relative to the initial value ([3]; subcutaneous 16 units with 56 g glucose (after volunteer I.), after 30 minutes): 31% | sugar level in blood increased relative to the initial value ([3]; subcutaneous 16 units with 56 g glucose (after volunteer I.), after 60 minutes): 13% | sugar level in blood reduced relative to the initial value ([3]; subcutaneous 16 units with 56 g glucose (after volunteer I.), after 120 minutes): 7%
